Legend:
[1] = system: incision pain in rats; assay: Incision pain test in rats, mechanical pain threshold by Electronic Von Frey; assay type: in vivo, male Wistar rats
[2] = system: rats; assay: Toxic effects / adverse reactions observed during the rat incision pain study; assay type: in vivo, male Wistar rats; details: single agents, i.v.
Experimental: The rats were randomly divided into the following groups according to the body weight: blank control group (n=8), model group (n=8) and drug-administered group (n=48). The drug-administered group was divided into the following groups: compound 19-0.1 mg/kg group (n=8), compound 19-0.3 mg/kg group (n=8), compound 19-0.03 mg/kg+compound 35-0.1 mg/kg group (n=8), compound 19-0.03 mg/kg+compound 35-0.3 mg/kg group (n=8), compound 19-0.1 mg/kg+compound 35-0.1 mg/kg group (n=8), and compound 19-0.1 mg/kg+compound 35-0.3 mg/kg group (n=8). The model group and drug-administered group were subjected to an incision surgery. During the surgery, the rats were anesthetized with isoflurane. An incision (1 cm long) passing through the skin and fascia was made with a No. 10 surgical blade in the middle of the left hind paw. The skin was sutured with a 3-0 sterile silk surgical suture. The injured site was disinfected with antibiotic ointment and iodophor. The animals were returned to their original place to recover overnight. After 24 hours, the drug was injected through the tail vein, and the blank control group and the model group were administrated with the corresponding solvents. […] The mechanical pain threshold of each group was measured by the Electronic Von Frey 30 minutes after the injection to evaluate the analgesic effect of the drug on the surgical incision pain and the intensity thereof.

SMILES	increase of tenderness threshold compared with the model group ([1]; compound 19 0.1 mg/kg i.v. alone, 30 minutes after administration) [%]	tenderness threshold ([1]; compound 19 0.1 mg/kg i.v. alone, 30 minutes after administration, model group 11.08 g, blank control 37.68 g) [g]	toxic effects (such as slow movement and stiffness of limbs in rats), compound 19 alone versus compound 35 alone [2]	increase of tenderness threshold compared with the model group ([1]; rat, in vivo, iv, 0.3 mg/kg) [%]	tenderness threshold ([1]; rat, in vivo, iv, 0.3 mg/kg) [g]
CCO[C@H]1CC[C@H](NCC[C@@]2(c3ccccn3)CCOC3(CCCC3)C2)c2ccccc21 [compound 19, (1S,4S)-4-Ethoxy-N-(2-((R)-9-(pyridin-2-yl)-6-oxaspiro[4.5]decan-9-yl)ethyl)-1,2,3,4-tetrahydronaphthalen-1-amine]	233.8	36.99	more obvious toxic effects	–	–
CNC(=O)NC1CCN(C(=O)[C@@H](CCCCN)NC(=O)[C@@H](CC(C)C)NC(=O)[C@@H](Cc2ccccc2)NC(=O)[C@H](N)Cc2ccccc2)CC1 [compound 35, (R)—N—((R)-6-Amino-1-(4-(3-methylureido)piperidin-1-yl)-1-oxohexan-2-yl)-2-((R)-2-((R)-2-amino-3-phenylpropanamido)-3-phenylpropanamido)-4-methylpentanamide]	–	–	–	102.3	22.42

From patent US20200054594A1 (priority 2017, published 2020)
